Results from PMC8596838, “Xylose‐Configured Cyclophellitols as Selective Inhibitors for Glucocerebrosidase” (Chembiochem, 2021).

What was measured:
GBA3 = biological target: T1, GBA3 (Homo sapiens, UniProt Q9H227); assay: ABP labeling of β-D-glucosidases in HEK293T cell lysate, GBA3; assay type: biochemical; conditions: 30 min, pH 6.0
T1 construct: expressed in transfected cells; host or cells: HEK293T (GBA/GBA2 KO background for the fluorogenic assay; endogenous-GBA background with GBA2 and GBA3 overexpressed for ABPP and intact-cell assays)
T1 sequence (Q9H227 1-469): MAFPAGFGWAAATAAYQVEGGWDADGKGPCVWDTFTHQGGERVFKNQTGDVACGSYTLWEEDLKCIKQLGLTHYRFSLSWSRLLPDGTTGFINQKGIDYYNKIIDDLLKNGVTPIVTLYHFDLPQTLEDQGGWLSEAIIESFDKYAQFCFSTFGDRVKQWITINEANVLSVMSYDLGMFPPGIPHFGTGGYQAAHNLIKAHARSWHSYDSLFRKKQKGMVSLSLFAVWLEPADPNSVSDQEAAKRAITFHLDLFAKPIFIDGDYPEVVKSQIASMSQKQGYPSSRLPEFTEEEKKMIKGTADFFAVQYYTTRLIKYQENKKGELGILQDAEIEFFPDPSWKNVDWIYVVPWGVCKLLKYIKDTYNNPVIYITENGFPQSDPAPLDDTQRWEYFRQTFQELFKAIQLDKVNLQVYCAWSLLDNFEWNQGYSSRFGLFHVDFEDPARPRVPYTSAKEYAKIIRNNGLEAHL
Method: (§1) We next investigated, by ABPP, the GBA/GBA2/GBA3 activity and selectivity of β‐D‐xylo‐cyclophellitol aziridine ABPs 6 and 8 in comparison to those of GBA‐specific ABP 9 [31] or ABP 10.
(§2) Figure 4 (A) ABP labeling of β‐D‐glucosidases. A lysate of HEK293T cells expressing human GBA, GBA2 and GBA3 was incubated with indicated ABPs (6, 9 or 10) for 30 min at pH 6.0. Fluorescently labeled proteins were visualized after SDS‐PAGE. (B) Labeling with ABP 6 of wild type or mutant GBA2 (E527G nucleophile mutation and D667G acid/base mutation) expressed in HEK293T cells.
(§3) ABP labeling procedure: Glycosidases were labeled with excess fluorescent ABPs at optimum conditions. […] After ABP incubation, proteins were denatured by boiling the samples with 5× Laemmli buffer (50 % (v/v) 1 M Tris‐HCl, pH 6.8, 50 % (v/v) 100 % glycerol, 10 % (w/v) DTT, 10 % (w/v) SDS, 0.01 % (w/v) bromophenol blue) for 5 min at 98 °C, and separated by electrophoresis on 10 % (w/v) SDS‐PAGE gels running continuously at 90 V. Wet slab‐gels were scanned on fluorescence using the Typhoon FLA 9500 (GE Healthcare) at λEX 473 nm and λEM≥510 nm for green fluorescent ABP 8; and at λEX 635 nm and λEM≥665 nm for ABP 6, 9 and 10. ABP‐emitted fluorescence was quantified using ImageQuant software (GE Healthcare, Chicago, IL, USA) and curve‐fitted using Prism 8.0 (GraphPad Software). […]

GBA = biological target: T2, GBA (Homo sapiens, UniProt P04062); assay: ABP labeling of β-D-glucosidases in HEK293T cell lysate, GBA; assay type: biochemical; conditions: 30 min, pH 6.0
T2 construct: HEK293T cells that contain endogenous GBA; endogenous in cells; host or cells: HEK293T (ATCC CRL-3216) overexpressing GBA2 and GBA3
T2 sequence (P04062 40-536): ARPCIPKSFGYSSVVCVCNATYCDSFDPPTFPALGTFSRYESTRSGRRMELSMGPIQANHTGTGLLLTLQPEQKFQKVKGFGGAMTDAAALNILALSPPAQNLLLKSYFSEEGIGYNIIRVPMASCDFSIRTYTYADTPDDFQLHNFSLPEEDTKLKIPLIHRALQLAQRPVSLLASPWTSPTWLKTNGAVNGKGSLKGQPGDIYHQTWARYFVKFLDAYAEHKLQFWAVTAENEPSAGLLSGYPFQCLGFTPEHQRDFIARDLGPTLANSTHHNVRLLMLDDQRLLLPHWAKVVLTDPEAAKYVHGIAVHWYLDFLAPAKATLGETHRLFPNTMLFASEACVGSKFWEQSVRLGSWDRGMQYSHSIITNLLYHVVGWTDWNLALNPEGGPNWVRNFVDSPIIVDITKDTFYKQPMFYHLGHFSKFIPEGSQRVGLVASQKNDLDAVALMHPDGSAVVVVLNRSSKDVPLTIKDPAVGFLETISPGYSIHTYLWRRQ
Method: as §1, §2, §3

Structure (SMILES): CN1/C(=C/C=C/C=C/C2=[N+](CCCCCC(=O)NCc3cn(CCCCCCCCN4[C@H]5[C@H](O)[C@@H](O)[C@H](O)C[C@H]54)nn3)c3ccccc3C2(C)C)C(C)(C)c2ccccc21 (some centres unmarked) [ABP 6]
- labeling of GBA3 compared with ABP 10 (GBA3): tenfold less efficiently

Structure (SMILES): CN1/C(=C/C=C/C=C/C2=[N+](CCCCCC(=O)NCc3cn(C[C@@H]4[C@@H](O)[C@H](O)[C@@H](O)[C@@H]5O[C@H]45)nn3)c3ccccc3C2(C)C)C(C)(C)c2ccccc21 [ABP 9, reference compound]
- selectivity of ABP labeling towards GBA over GBA2 and GBA3 (GBA): most selective ABP towards GBA over GBA2 and GBA3
